In patent publication US20190350236A1, “METHOD OF PROCESSING SHELLFISH AND RESULTING COMPOSITIONS” (SANFORD LIMITED, priority 2016, published 2019):

Key:
[1] = DPPH scavenging method (antioxidant activity); conditions: reference value used for FIG. 8
Experimental: The antioxidant activity of each of the samples was tested using the DPPH scavenging method (i.e. by using the stable free radical 2,2-Diphenyl-1-(2,4,6-trinitrophenyl) hydrazyl as a substrate). Whilst the DPPH method is not a direct anti-inflammatory assay, antioxidant activity has been an indication of anti-inflammatory activity in many study cases. The DPPH solution was prepared […] and kept in the freezer in the dark before use. The positive control was ascorbic acid prepared as 0.1 mg/ml in a buffer containing citric acid and NaHPO4 (pH 5). Equal amounts of sample solution and DPPH solution were added together, and the assay tube or plate was incubated for 30 minutes in the dark, followed by absorbance measurement at 517 nm on a spectrophotometer. In the blank control experiment of each sample, DPPH was replaced with ethanol. In the DPPH blank control experiment, the sample was replaced with the media (water or solvent) the sample was prepared in.
The scavenging activity (DPPH inhibition %) is calculated by percentage of the absorbance from the sample versus the DPPH only:
All samples were tested at a concentration of 10 mg/ml.

activated neutrophils = assay: Inhibition of superoxide production by PMA-activated neutrophils (WST-1 reduction), anti-inflammatory activity; assay type: cell-based; conditions: Rattus norvegicus, Neutrophil
Experimental: The relative anti-inflammatory properties of the test samples were determined by establishing their abilities to inhibit the activation of neutrophils as measured by the production of superoxide. The efficacy of the test samples was referenced against Aspirin, as well as an un-supplemented control group.
Samples 1, 2 and 3 (actually numbered samples 3, 4 and 5 in the above table) were produced from the same batch of mussels. Each of the above test samples was extracted with ethanol at a ratio of 1:10 (w:v) and the residues were then extracted with distilled water at the same ratio, so that the activity of both the lipid rich or hydrophobic fraction and the hydrophilic or aqueous fraction of each of the test samples could be tested. The experimental procedure for determining the effects of the test samples on inflammation was based on the methods described in Tan, A S and Berridge, MV (2000). Superoxide produced by activated neutrophils efficiently reduces the tetrazolium salt, WST-1 to produce a soluble formazan: a simple colorimetric assay for measuring respiratory burst activation and for screening of anti-inflammatory agents. J Immunol. Meth. 238: 59-68. Neutrophils were harvested from rat whole blood and activated with phorbol 12-myristate 13-acetate (PMA). The activated neutrophils were then incubated and cultured in the presence of each of the test samples and the controls. The reduction of the WST-1 dye was measured to determine the products of superoxide. The control group was set at 100% activity (0% inhibition) and the inhibition of all samples were compared to this reference.
The ethanol and water extracts (lipid rich and hydrophilic fractions) from each of the test samples were tested at 400 μg/ml for their anti-inflammatory activity based on the inhibition of superoxide by activated neutrophils. The yields of each extraction were used along with the activity of each to obtain an estimate for the total activity within each of the test samples for the two fractions.

IC50 of Vitamin E equivalent [1] [µg/mL]	Molecule	IC50 (activated neutrophils; reference value used for FIG. 7, read-out: IC50 of aspirin equivalent) [µg/mL]	inhibition at 100 µg/mL (activated neutrophils; reference, 100 μg/ml) [%]	inhibition at 200 µg/mL (activated neutrophils; reference, 200 μg/ml) [%]	inhibition at 400 µg/mL (activated neutrophils; reference, 400 μg/ml) [%]
9.26	Vitamin E				
	CC(=O)Oc1ccccc1C(=O)O [Aspirin]	400	16.5	48.1	50.2
